Results from patent US5595883A, “Method of diagnosing alzheimer's disease by measuring acetylcholinesterase activity in ocular fluid” (priority 1990, dated 1997).

Test system: AChE
Experiment: Cholinesterase activity of human ocular fluid (micro Ellman assay, acetylthiocholine substrate), inhibition by BW 284c51
Assay type: biochemical
Conditions: BW 284c51 1.5 μM, acetylthiocholine 1.0 mM, pH 7.0, 25° C.
Method: Cholinesterase activities were measured by a microversion of the method of Ellman et al, (1961) supra, using microtitre plates. Acetylthiocholine was used as substrate at a concentration of 1.0 mM, which is optimal for AChE, but suboptimal for BuChE. The assay was performed in 0.05M Na/K phosphate buffer, pH 7.0 at 25° C., containing 3 mM 5,5'-dithio-bis-(2-nitrobenzoate), in a total volume of 100 μL. The rate of hydrolysis of acetylthiocholine was monitored by measurement of absorbances at 410 nm, using a Titertek multiscan microplate reader. A calibration curve was constructed using purified electric eel AChE (Sigma). AChE and BuChE activities were distinguished by use of the specific AChE inhibitor 1,5-bis-(-4-allyldimethylammoniumphenyl)pentan-3-one dibromide (BW 284c51) (1.5 μM).

C=CC[N+](C)(C)c1ccc(CCC(=O)CCc2ccc([N+](C)(C)CC=C)cc2)cc1 [BW 284c51, 1,5-bis-(-4-allyldimethylammoniumphenyl)pentan-3-one dibromide]
inhibition of cholinesterase activity of ocular fluid: Most of this activity was inhibited
